# From patent US20230193265A1, “CUG REPEAT SEQUENCE BINDING AGENT” (OSAKA UNIVERSITY, priority 2020, published 2023)
# Columns and labels:
# [1] = tested on: r(CUG)9; assay: Surface plasmon resonance (SPR) binding to immobilized r(CUG)9 RNA
# Description: A streptavidin-coated sensor chip (SA chip, GE Healthcare) was washed with HBS-EP^+ buffer (10 mM HEPES, pH 7.4, 0.15 M NaCl, 3 mM EDTA and 0.05% v/v Surfactant P20) for 6 minutes, and then activated with three consecutive 1-min injection of 30 μL of activation buffer (50 mM NaOH and 1 M NaCl).
# 5′-Biotinylated r(CUG)9 (Thermo Fisher Scientific Inc.) was diluted to 0.1 μM with HEPES buffer (10 mM HEPES and 500 mM NaCl) and flowed onto the sensor chip until immobilized response units (RU) reaching around 400 RU. The amount of r(CUG)9 immobilized on the surface of the sensor chip was at 401 RU.
# Surface plasmon resonance was measured using BIAcore T200 SPR system (GE Healthcare).
# r(CUG)9 used for the SPR assay has the sequence as shown below.
# For single-cycle kinetic (SCK) analysis, the surface of the sensor chip was conditioned by 120 sec exposure of continuous flow of HBS-EP^+ buffer at a flow rate of 30 μL/min at 25° C. Compound JM608 was dissolved in HBS-EP^+ buffer at a concentration of 0.063 μM, 0.125 μM, 0.25 μM, 0.50 μM and 1.0 μM, and the resulting solutions were sequentially injected on the sensor surface for 60 seconds each at a flow rate of 30 μL/min per cycle.
# The obtained SPR response curves were analyzed using BIAcore T200 evaluation software (version 2.0).
# SPR measurement was performed in the same manner as in Example 1 except that compound JM642 was used in place of compound JM608 and that solutions of compound JM642 at concentrations of 6 nM, 13 nM, 25 nM, 50 nM and 100 nM were sequentially injected.
# The resonance unit for the compound at a concentration of 25 nM in Example 1 was calculated from the measured value (1.9 RU) for the compound at 63 nM using the formula: 1.9 RU×(25 nM/63 nM).
# [2] = tested on: Clcn1 (muscle-specific chloride channel gene) Exon 7a splicing; assay: Improvement of Clcn1 splicing abnormality in DM1 mouse model; type: in vivo, homozygous HSA^LR transgenic mice; conditions: 20 mg/kg/day, daily intraperitoneal administration for five days; rectus femoris (quadriceps)
# Description: (§1) Gender- and age-matched homozygous HSA^LR transgenic mice of line 20b (FVB inbred background) (Science 2000, 289, 1769-1772) (<3 months old) were treated with JM642 at indicated doses (10 mg/kg/day and 20 mg/kg/day) for five days by daily intraperitoneal administration. After treatments, the rectus femoris (quadriceps) were obtained for splicing analysis. Total RNA extraction from the tissue, cDNA synthesis and polymerase chain reaction (PCR) were carried out according to Ann. Clin. Transl. Neurol. 2016, 3, 42-54. The PCR products were separated by agarose gel electrophoresis, and the gel was stained with GelRed (Biotium). The gel was imaged using a Typhoon laser fluorimager (GE Healthcare) and the gel bands were quantified using ImageQuant (GE Healthcare).
# (§2) For normal mice and mice treated in the same manner as above except that JM642 was not administered, total RNA extraction, cDNA synthesis, PCR and electrophoresis of the PCR products were performed in the same manner as above.
# Evaluation was performed in the same manner as in Example 3 except that Clcn1 was studied in place of Atp2a1.
# Evaluation was performed in the same manner as in Example 4 except that the compound (DDAP) shown above synthesized in accordance with the method described in non-patent literature 3 was used in place of compound JM642.
# [3] = tested on: Atp2a1 (sarcoplasmic reticulum Ca2+/ATPase gene) Exon 22 splicing; assay: Improvement of Atp2a1 splicing abnormality in DM1 mouse model; type: in vivo, homozygous HSA^LR transgenic mice; conditions: 20 mg/kg/day, daily intraperitoneal administration for five days; rectus femoris (quadriceps)
# Description: as §1, §2
# Evaluation was performed in the same manner as in Example 3 except that the compound (DDAP) shown below synthesized in accordance with the method described in non-patent literature 3 was used in place of compound JM642.
compound,measurement,setting,value
"NCCCNc1nc(NC(=O)OCCCN)cc2c(-c3ccnc(N4CCNCC4)c3)cccc12 [JM608, 3-aminopropyl (1-((3-aminopropyl)amino)-5-(2-(piperazin-1-yl)pyridin-4-yl)isoquinolin-3-yl)carbamate]",Resonance unit (RU) at concentration of 25 nM,"[1]; 25 nM compound, r(CUG)9 immobilized at 401 RU, calculated from measured value at 63 nM: 1.9 RU×(25 nM/63 nM)",0.8 RU
same,"Resonance unit, measured value at 63 nM","[1]; 63 nM compound, r(CUG)9 immobilized at 401 RU",1.9 RU
same,binding capacity to the CUG repeat sequence,"[1]; SPR, FIGS. 1 and 2 and Table 2",observed
"NCCCNc1nc(NC(=O)OCCCNC(=O)CCNCCC(=O)NCCCOC(=O)Nc2cc3c(-c4ccnc(N5CCNCC5)c4)cccc3c(NCCCN)n2)cc2c(-c3ccnc(N4CCNCC4)c3)cccc12 [JM642, ((3,3′-azanediylbis(propanoyl))bis(azanediyl))bis(propane-3,1-diyl)bis((1-((3-aminopropyl)amino)-5-(2-(piperazin-1-yl)pyridin-4-yl)isoquinolin-3-yl)carbamate)]",skipping rate of Exon 7a,[2],70%
same,inclusion rate of Exon 22,[3],70%
